Reference: patent US8993483B2, “Combination of active substances with insecticidal properties” (Bayer Intellectual Property GmbH, priority 2003, dated 2015)

melting point [°C]	Compound
192 to 194	CCNC(=O)c1cc(Br)cc(Br)c1NC(=O)c1cc(Cl)nn1-c1ncccc1Cl
192 to 195	CNC(=O)c1cc(Cl)cc(Cl)c1NC(=O)c1cc(OCC(F)(F)F)nn1-c1ncccc1Cl
199 to 200	CNC(=O)c1cc(I)cc(C)c1NC(=O)c1cc(C(F)(F)F)nn1-c1ncccc1Cl
140 to 141	CNC(=O)c1cc(Br)cc(C)c1NC(=O)c1cc(Cl)nn1-c1ncccc1Cl
222 to 223	CNC(=O)c1cc(Br)cc(C)c1NC(=O)c1cc(C(F)(F)F)nn1-c1ncccc1Cl
188 to 189	CCNC(=O)c1cc(Br)cc(Br)c1NC(=O)c1cc(C(F)(F)F)nn1-c1ncccc1Cl
200 to 201	CC(C)NC(=O)c1cc(Cl)cc(Cl)c1NC(=O)c1cc(C(F)(F)F)nn1-c1ncccc1Cl
201 to 202	CCNC(=O)c1cc(Cl)cc(Cl)c1NC(=O)c1cc(C(F)(F)F)nn1-c1ncccc1Cl
194 to 196	CC(C)(C)NC(=O)c1cc(Br)cc(Br)c1NC(=O)c1cc(Br)nn1-c1ncccc1Cl
188 to 190	CC(C)NC(=O)c1cc(Cl)cc(Cl)c1NC(=O)c1cc(Br)nn1-c1ncccc1Cl
205 to 207	CCNC(=O)c1cc(Cl)cc(C)c1NC(=O)c1cc(OCC(F)(F)F)nn1-c1ncccc1Cl
162 to 163	CNC(=O)c1cc(Br)cc(Br)c1NC(=O)c1cc(C(F)(F)F)nn1-c1ncccc1Cl
192 to 193	CCNC(=O)c1cc(Br)cc(C)c1NC(=O)c1cc(C(F)(F)F)nn1-c1ncccc1Cl
188 to 189	Cc1cc(I)cc(C(=O)NC(C)C)c1NC(=O)c1cc(C(F)(F)F)nn1-c1ncccc1Cl
163 to 164	CCNC(=O)c1cc(Cl)cc(C)c1NC(=O)c1cc(C(F)(F)F)nn1-c1ncccc1Cl
196 to 197	CCNC(=O)c1cc(I)cc(C)c1NC(=O)c1cc(Cl)nn1-c1ncccc1Cl
155 to 157	CNC(=O)c1cc(Cl)cc(Cl)c1NC(=O)c1cc(C(F)(F)F)nn1-c1ncccc1Cl
207 to 208	Cc1cc(Br)cc(C(=O)N(C)C)c1NC(=O)c1cc(C(F)(F)F)nn1-c1ncccc1Cl
206 to 208	CCNC(=O)c1cc(Cl)cc(Cl)c1NC(=O)c1cc(Cl)nn1-c1ncccc1Cl
228 to 229	Cc1cc(I)cc(C(=O)NC(C)(C)C)c1NC(=O)c1cc(Cl)nn1-c1ncccc1Cl

melting point [°C]	Compound
214 to 215	CCNC(=O)c1cc(Cl)cc(Cl)c1NC(=O)c1cc(Br)nn1-c1ncccc1Cl
246 to 247	CC(C)(C)NC(=O)c1cc(Br)cc(Br)c1NC(=O)c1cc(C(F)(F)F)nn1-c1ncccc1Cl
191 to 192	Cc1cc(I)cc(C(=O)NC(C)C)c1NC(=O)c1cc(Br)nn1-c1ncccc1Cl
147 to 149	CNC(=O)c1cc(Br)cc(C)c1NC(=O)c1cc(Br)nn1-c1ncccc1Cl
231 to 232	CN(C)C(=O)c1cc(Cl)cc(Cl)c1NC(=O)c1cc(Cl)nn1-c1ncccc1Cl
223 to 225	Cc1cc(Cl)cc(C(=O)NC(C)(C)C)c1NC(=O)c1cc(C(F)(F)F)nn1-c1ncccc1Cl
242 to 243	Cc1cc(I)cc(C(=O)NC(C)(C)C)c1NC(=O)c1cc(C(F)(F)F)nn1-c1ncccc1Cl
233 to 234	CNC(=O)c1cc(I)cc(C)c1NC(=O)c1cc(Cl)nn1-c1ncccc1Cl
170 to 172	CC(C)(C)NC(=O)c1cc(Cl)cc(Cl)c1NC(=O)c1cc(C(F)(F)F)nn1-c1ncccc1Cl
217 to 218	Cc1cc(Cl)cc(C(=O)NC(C)C)c1NC(=O)c1cc(OCC(F)(F)F)nn1-c1ncccc1Cl
159 to 161	Cc1cc(Cl)cc(C(=O)NC(C)(C)C)c1NC(=O)c1cc(Br)nn1-c1ncccc1Cl
232 to 235	CC(C)NC(=O)c1cc(Cl)cc(Cl)c1NC(=O)c1cc(OCC(F)(F)F)nn1-c1ncccc1Cl
228 to 229	CN(C)C(=O)c1cc(Br)cc(Br)c1NC(=O)c1cc(C(F)(F)F)nn1-c1ncccc1Cl
229 to 230	CNC(=O)c1cc(I)cc(C)c1NC(=O)c1cc(Br)nn1-c1ncccc1Cl
245 to 246	CNC(=O)c1cc(Cl)cc(Cl)c1NC(=O)c1cc(Br)nn1-c1ncccc1Cl
152 to 153	Cc1cc(Br)cc(C(=O)NC(C)C)c1NC(=O)c1cc(Cl)nn1-c1ncccc1Cl
194 to 196	CCNC(=O)c1cc(Br)cc(C)c1NC(=O)c1cc(Br)nn1-c1ncccc1Cl
163 to 165	Cc1cc(Cl)cc(C(=O)NC(C)(C)C)c1NC(=O)c1cc(Cl)nn1-c1ncccc1Cl
197 to 199	CC(C)NC(=O)c1cc(Br)cc(Br)c1NC(=O)c1cc(Cl)nn1-c1ncccc1Cl
197 to 199	CC(C)NC(=O)c1cc(Cl)cc(Cl)c1NC(=O)c1cc(Cl)nn1-c1ncccc1Cl

melting point [°C]	Compound
162 to 163	CC(C)NC(=O)c1cc(Br)cc(Br)c1NC(=O)c1cc(Br)nn1-c1ncccc1Cl
247 to 248	Cc1cc(Br)cc(C(=O)NC(C)(C)C)c1NC(=O)c1cc(C(F)(F)F)nn1-c1ncccc1Cl
207 to 208	CNC(=O)c1cc(Cl)cc(C)c1NC(=O)c1cc(OCC(F)(F)F)nn1-c1ncccc1Cl
225 to 227	CN(C)C(=O)c1cc(Cl)cc(Cl)c1NC(=O)c1cc(C(F)(F)F)nn1-c1ncccc1Cl
166 to 168	CNC(=O)c1cc(Br)cc(Br)c1NC(=O)c1cc(Br)nn1-c1ncccc1Cl
194 to 195	CCNC(=O)c1cc(Cl)cc(C)c1NC(=O)c1cc(Br)nn1-c1ncccc1Cl
179 to 180	CC(C)(C)NC(=O)c1cc(Cl)cc(Cl)c1NC(=O)c1cc(Br)nn1-c1ncccc1Cl
153 to 155	CN(C)C(=O)c1cc(Br)cc(Br)c1NC(=O)c1cc(Cl)nn1-c1ncccc1Cl
199 to 200	CCNC(=O)c1cc(Cl)cc(C)c1NC(=O)c1cc(Cl)nn1-c1ncccc1Cl
188 to 190	CNC(=O)c1cc(Br)cc(Br)c1NC(=O)c1cc(Cl)nn1-c1ncccc1Cl
143 to 145	CC(C)(C)NC(=O)c1cc(Br)cc(Cl)c1NC(=O)c1cc(C(F)(F)F)nn1-c1ncccc1Cl
192 to 194	CCNC(=O)c1cc(Br)cc(C)c1NC(=O)c1cc(Cl)nn1-c1ncccc1Cl
185 to 187	Cc1cc(Br)cc(C(=O)NC(C)C)c1NC(=O)c1cc(Br)nn1-c1ncccc1Cl
189 to 190	CN(C)C(=O)c1cc(Br)cc(Br)c1NC(=O)c1cc(Br)nn1-c1ncccc1Cl
224 to 225	Cc1cc(Br)cc(C(=O)NC(C)(C)C)c1NC(=O)c1cc(Cl)nn1-c1ncccc1Cl
205 to 206	CNC(=O)c1cc(Cl)cc(Cl)c1NC(=O)c1cc(Cl)nn1-c1ncccc1Cl
215 to 221	Cc1cc(Br)cc(C(=O)NC(C)(C)C)c1NC(=O)c1cc(Br)nn1-c1ncccc1Cl
225 to 226	CNC(=O)c1cc(Cl)cc(C)c1NC(=O)c1cc(Cl)nn1-c1ncccc1Cl
199 to 200	CCNC(=O)c1cc(I)cc(C)c1NC(=O)c1cc(C(F)(F)F)nn1-c1ncccc1Cl
197 to 198	Cc1cc(Br)cc(C(=O)NC(C)C)c1NC(=O)c1cc(C(F)(F)F)nn1-c1ncccc1Cl
